# Experimental data: ChEMBL document CHEMBL4265937, “Branched pentapeptides as potent inhibitors of the vascular endothelial growth factor 165 binding to Neuropilin-1: Design, synthesis and biological activity” (Eur J Med Chem, 2018)
# Non-standard residues stand in square brackets, D forms with d. Residues, ends and D or L forms follow the SMILES beside them. *: point of attachment. X1 = N=C(N)NCCCCCCCCCCC(=O)*; X2 = N=C(N)NCCCCCCC(=O)*; Dab = NCC[C@H](N)C(=O)O
# Assays:
# [1] = biological target: Neuropilin-1 (Rattus norvegicus) (UniProt Q9QWJ9); assay: Inhibition of biotinylated VEGF-A165 binding to rat NRP1/FC chimera at 1 uM after 40 mins by ELISA relative to control
# [2] = biological target: Neuropilin-1 (Rattus norvegicus) (UniProt Q9QWJ9); assay: Inhibition of biotinylated VEGF-A165 binding to rat NRP1/FC chimera at 0.3 uM after 40 mins by ELISA relative to control
# Neuropilin-1 [3] = biological target: Neuropilin-1 (Homo sapiens, UniProt O14786); assay: Inhibition of biotinylated VEGF165 binding to NRP1 (unknown origin) by ELISA
# Chain of Neuropilin-1 (Homo sapiens, UniProt O14786) (O14786 whole entry): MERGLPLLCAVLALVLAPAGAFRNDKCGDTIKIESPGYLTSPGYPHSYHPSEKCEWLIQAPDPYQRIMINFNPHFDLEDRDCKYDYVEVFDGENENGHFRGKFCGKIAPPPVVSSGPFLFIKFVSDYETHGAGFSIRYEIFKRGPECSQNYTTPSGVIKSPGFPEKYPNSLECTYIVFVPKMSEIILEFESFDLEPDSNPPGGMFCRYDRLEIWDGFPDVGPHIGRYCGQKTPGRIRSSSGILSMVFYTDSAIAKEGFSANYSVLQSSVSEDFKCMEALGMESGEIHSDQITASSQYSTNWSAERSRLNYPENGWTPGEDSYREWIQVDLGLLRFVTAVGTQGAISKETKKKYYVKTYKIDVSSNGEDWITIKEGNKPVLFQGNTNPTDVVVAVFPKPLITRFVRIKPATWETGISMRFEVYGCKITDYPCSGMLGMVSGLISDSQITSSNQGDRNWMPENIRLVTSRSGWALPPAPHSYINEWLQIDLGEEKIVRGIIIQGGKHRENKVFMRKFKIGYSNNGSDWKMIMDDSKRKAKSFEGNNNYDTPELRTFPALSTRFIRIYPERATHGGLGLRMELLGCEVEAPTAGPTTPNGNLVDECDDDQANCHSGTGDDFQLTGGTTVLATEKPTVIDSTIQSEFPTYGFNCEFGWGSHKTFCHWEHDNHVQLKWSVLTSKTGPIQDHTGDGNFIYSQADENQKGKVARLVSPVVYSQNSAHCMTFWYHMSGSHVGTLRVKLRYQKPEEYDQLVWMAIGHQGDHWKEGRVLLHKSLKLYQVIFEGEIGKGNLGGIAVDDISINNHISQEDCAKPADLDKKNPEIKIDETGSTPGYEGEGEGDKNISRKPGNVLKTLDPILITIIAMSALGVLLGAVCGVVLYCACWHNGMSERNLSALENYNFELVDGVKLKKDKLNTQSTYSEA
# Neuropilin-1 [4] = biological target: Neuropilin-1 (Rattus norvegicus, UniProt Q9QWJ9); assay: Inhibition of biotinylated VEGF-A165 binding to rat NRP1/FC chimera after 40 mins by ELISA
# [5] = Half life in human plasma at 0.9 umol/ml by LC-MS analysis; format: ADME, cell-free
# [6] = biological target: Neuropilin-1 (Rattus norvegicus) (UniProt Q9QWJ9); assay: Inhibition of biotinylated VEGF-A165 binding to rat NRP1/FC chimera at 10 uM after 40 mins by ELISA relative to control
compound,measurement,setting,value
N=C(N)NCCCCCCCCCCC(=O)NCCCC[C@H](N)C(=O)N1CCC[C@H]1C(=O)N[C@@H](CCN)C(=O)N[C@@H](CCCNC(=N)N)C(=O)O (H-K(X1)P[Dab]R-OH),inhibition,[1],35.5%
same,inhibition,[2],12.1%
N=C(N)NCCCCCCC(=O)NCCCC[C@H](N)C(=O)N1CCC[C@H]1C(=O)N[C@@H](CCN)C(=O)N[C@@H](CCCNC(=N)N)C(=O)O (H-K(X2)P[Dab]R-OH),inhibition,[1],44.7%
same,inhibition,[2],25.5%
N=C(N)NCCC[C@H](NC(=O)[C@@H]1CCCN1C(=O)[C@@H]1CCCN1C(=O)[C@@H](N)CCCCN)C(=O)O (H-KPPR-OH),IC50,Neuropilin-1 [3],4600 nM
same,inhibition,[1],15.4%
same,inhibition,[2],10.1%
"C[C@H](NC(=O)[C@H](C)NC(=O)[C@@H](N)CCCCNC(=O)C(N)CCCCN=C(N)N)C(=O)N[C@@H](CCCNC(=N)N)C(=O)O (stereo partly drawn) (HELM PEPTIDE1{K.A.A.R}|PEPTIDE2{[N=C(N)NCCCCC(N)C(=O)[*:2]]}$PEPTIDE1,PEPTIDE2,1:R3-1:R2$$$V2.0)",inhibition,[1],48.9%
same,inhibition,[2],16.9%
"C[C@H](NC(=O)[C@@H](N)CCCCNC(=O)C(N)CCCCN=C(N)N)C(=O)N1CCC[C@H]1C(=O)N[C@@H](CCCNC(=N)N)C(=O)O (stereo partly drawn) (HELM PEPTIDE1{K.A.P.R}|PEPTIDE2{[N=C(N)NCCCCC(N)C(=O)[*:2]]}$PEPTIDE1,PEPTIDE2,1:R3-1:R2$$$V2.0)",inhibition,[1],20%
same,inhibition,[2],3.9%
"C[C@H](NC(=O)[C@H](CCCCN)NC(=O)[C@@H](N)CCCCNC(=O)C(N)CCCCN=C(N)N)C(=O)N[C@@H](CCCNC(=N)N)C(=O)O (stereo partly drawn) (HELM PEPTIDE1{K.K.A.R}|PEPTIDE2{[N=C(N)NCCCCC(N)C(=O)[*:2]]}$PEPTIDE1,PEPTIDE2,1:R3-1:R2$$$V2.0)",inhibition,[1],22.2%
"N=C(N)NCCC[C@H](NC(=O)[C@@H]1CCCN1C(=O)[C@H](CCCCN)NC(=O)[C@@H](N)CCCCNC(=O)C(N)CCCCN=C(N)N)C(=O)O (stereo partly drawn) (HELM PEPTIDE1{K.K.P.R}|PEPTIDE2{[N=C(N)NCCCCC(N)C(=O)[*:2]]}$PEPTIDE1,PEPTIDE2,1:R3-1:R2$$$V2.0)",inhibition,[1],22.1%
"C[C@H](NC(=O)[C@@H]1CCCN1C(=O)[C@@H](N)CCCCNC(=O)C(N)CCCCN=C(N)N)C(=O)N[C@@H](CCCNC(=N)N)C(=O)O (stereo partly drawn) (HELM PEPTIDE1{K.P.A.R}|PEPTIDE2{[N=C(N)NCCCCC(N)C(=O)[*:2]]}$PEPTIDE1,PEPTIDE2,1:R3-1:R2$$$V2.0)",inhibition,[1],77.5%
same,inhibition,[2],54.2%
same,IC50,Neuropilin-1 [4]; read-out: IC50,300 nM
same,half-life at 900 µM,[5],0.65 h
"N=C(N)NCCC[C@H](NC(=O)[C@H](CCCCN)NC(=O)[C@@H]1CCCN1C(=O)[C@@H](N)CCCCNC(=O)C(N)CCCCN=C(N)N)C(=O)O (stereo partly drawn) (HELM PEPTIDE1{K.P.K.R}|PEPTIDE2{[N=C(N)NCCCCC(N)C(=O)[*:2]]}$PEPTIDE1,PEPTIDE2,1:R3-1:R2$$$V2.0)",inhibition,[1],22.4%
same,inhibition,[2],20.6%
"N=C(N)NCCC[C@H](NC(=O)[C@@H]1CCCN1C(=O)[C@@H]1CCCN1C(=O)[C@@H](N)CCCCNC(=O)C(N)CCCCN=C(N)N)C(=O)O (stereo partly drawn) (HELM PEPTIDE1{K.P.P.R}|PEPTIDE2{[N=C(N)NCCCCC(N)C(=O)[*:2]]}$PEPTIDE1,PEPTIDE2,1:R3-1:R2$$$V2.0)",inhibition,[1],41.4%
same,inhibition,[2],4.7%
same,IC50,Neuropilin-1 [4]; read-out: IC50,1000 nM
"N=C(N)NCCC[C@H](NC(=O)[C@@H]1CCCN1C(=O)[C@@H](N)CCCCNC(=O)C(N)CCCCN=C(N)N)C(=O)O (stereo partly drawn) (HELM PEPTIDE1{K.P.R}|PEPTIDE2{[N=C(N)NCCCCC(N)C(=O)[*:2]]}$PEPTIDE1,PEPTIDE2,1:R3-1:R2$$$V2.0)",inhibition,[6],47.8%
"N=C(N)NCCC[C@H](NC(=O)[C@H](CCN)NC(=O)[C@@H]1CCCN1C(=O)[C@@H](N)CCCCNC(=O)C(N)CCNC(=N)N)C(=O)O (stereo partly drawn) (HELM PEPTIDE1{K.P.[Dab].R}|PEPTIDE2{[N=C(N)NCCC(N)C(=O)[*:2]]}$PEPTIDE1,PEPTIDE2,1:R3-1:R2$$$V2.0)",inhibition,[1],28%
same,inhibition,[2],5.7%
"N=C(N)NCCCC(N)C(=O)NCCCC[C@H](N)C(=O)N1CCC[C@H]1C(=O)N[C@@H](CCN)C(=O)N[C@@H](CCCNC(=N)N)C(=O)O (stereo partly drawn) (HELM PEPTIDE1{K.P.[Dab].R}|PEPTIDE2{[N=C(N)NCCCC(N)C(=O)[*:2]]}$PEPTIDE1,PEPTIDE2,1:R3-1:R2$$$V2.0)",inhibition,[1],39.9%
same,inhibition,[2],8%
"N=C(N)NCCC[C@H](NC(=O)[C@H](CCN)NC(=O)[C@@H]1CCCN1C(=O)[C@@H](N)CCCCNC(=O)C(N)CCCCN=C(N)N)C(=O)O (stereo partly drawn) (HELM PEPTIDE1{K.P.[Dab].R}|PEPTIDE2{[N=C(N)NCCCCC(N)C(=O)[*:2]]}$PEPTIDE1,PEPTIDE2,1:R3-1:R2$$$V2.0)",inhibition,[1],82.6%
same,inhibition,[2],62.2%
same,IC50,Neuropilin-1 [4]; read-out: IC50,200 nM
same,IC50,Neuropilin-1 [4]; read-out: pIC50 (converted),240 nM
same,half-life at 900 µM,[5],0.733 h
"N=C(N)NCCC[C@H](NC(=O)[C@H](CN)NC(=O)[C@@H]1CCCN1C(=O)[C@@H](N)CCCCNC(=O)C(N)CCCCN=C(N)N)C(=O)O (stereo partly drawn) (HELM PEPTIDE1{K.P.[NC[C@H](N[*:1])C(=O)[*:2]].R}|PEPTIDE2{[N=C(N)NCCCCC(N)C(=O)[*:2]]}$PEPTIDE1,PEPTIDE2,1:R3-1:R2$$$V2.0)",inhibition,[1],23.6%
same,inhibition,[2],18.4%
"N=C(N)NCCC[C@H](NC(=O)[C@H](CCCN)NC(=O)[C@@H]1CCCN1C(=O)[C@@H](N)CCCCNC(=O)C(N)CCCCN=C(N)N)C(=O)O (stereo partly drawn) (HELM PEPTIDE1{K.P.[Orn].R}|PEPTIDE2{[N=C(N)NCCCCC(N)C(=O)[*:2]]}$PEPTIDE1,PEPTIDE2,1:R3-1:R2$$$V2.0)",inhibition,[1],17.8%
same,inhibition,[2],11.1%
"C[C@H](NC(=O)[C@H](CCN)NC(=O)[C@@H](N)CCCCNC(=O)C(N)CCCCN=C(N)N)C(=O)N[C@@H](CCCNC(=N)N)C(=O)O (stereo partly drawn) (HELM PEPTIDE1{K.[Dab].A.R}|PEPTIDE2{[N=C(N)NCCCCC(N)C(=O)[*:2]]}$PEPTIDE1,PEPTIDE2,1:R3-1:R2$$$V2.0)",inhibition,[1],47.3%
same,inhibition,[2],16.1%
"N=C(N)NCCC[C@H](NC(=O)[C@@H]1CCCN1C(=O)[C@H](CCN)NC(=O)[C@@H](N)CCCCNC(=O)C(N)CCCCN=C(N)N)C(=O)O (stereo partly drawn) (HELM PEPTIDE1{K.[Dab].P.R}|PEPTIDE2{[N=C(N)NCCCCC(N)C(=O)[*:2]]}$PEPTIDE1,PEPTIDE2,1:R3-1:R2$$$V2.0)",inhibition,[1],83.7%
same,inhibition,[2],59.6%
same,IC50,Neuropilin-1 [4]; read-out: IC50,200 nM
same,half-life at 900 µM,[5],41 h
"C[C@H](NC(=O)[C@H](CN)NC(=O)[C@@H](N)CCCCNC(=O)C(N)CCCCN=C(N)N)C(=O)N[C@@H](CCCNC(=N)N)C(=O)O (stereo partly drawn) (HELM PEPTIDE1{K.[NC[C@H](N[*:1])C(=O)[*:2]].A.R}|PEPTIDE2{[N=C(N)NCCCCC(N)C(=O)[*:2]]}$PEPTIDE1,PEPTIDE2,1:R3-1:R2$$$V2.0)",inhibition,[1],25%
same,inhibition,[2],14.1%
"N=C(N)NCCC[C@H](NC(=O)[C@@H]1CCCN1C(=O)[C@H](CN)NC(=O)[C@@H](N)CCCCNC(=O)C(N)CCCCN=C(N)N)C(=O)O (stereo partly drawn) (HELM PEPTIDE1{K.[NC[C@H](N[*:1])C(=O)[*:2]].P.R}|PEPTIDE2{[N=C(N)NCCCCC(N)C(=O)[*:2]]}$PEPTIDE1,PEPTIDE2,1:R3-1:R2$$$V2.0)",inhibition,[1],82%
same,inhibition,[2],59.4%
same,IC50,Neuropilin-1 [4]; read-out: IC50,200 nM
same,half-life at 900 µM,[5],34 h
"C[C@H](NC(=O)[C@H](CCCN)NC(=O)[C@@H](N)CCCCNC(=O)C(N)CCCCN=C(N)N)C(=O)N[C@@H](CCCNC(=N)N)C(=O)O (stereo partly drawn) (HELM PEPTIDE1{K.[Orn].A.R}|PEPTIDE2{[N=C(N)NCCCCC(N)C(=O)[*:2]]}$PEPTIDE1,PEPTIDE2,1:R3-1:R2$$$V2.0)",inhibition,[1],15.6%
"N=C(N)NCCC[C@H](NC(=O)[C@@H]1CCCN1C(=O)[C@H](CCCN)NC(=O)[C@@H](N)CCCCNC(=O)C(N)CCCCN=C(N)N)C(=O)O (stereo partly drawn) (HELM PEPTIDE1{K.[Orn].P.R}|PEPTIDE2{[N=C(N)NCCCCC(N)C(=O)[*:2]]}$PEPTIDE1,PEPTIDE2,1:R3-1:R2$$$V2.0)",inhibition,[1],38%
same,inhibition,[2],10.4%
"N=C(N)NCCC[C@H](NC(=O)[C@H](CCN)NC(=O)[C@@H]1CCCN1C(=O)[C@@H](N)CCNC(=O)C(N)CCCCN=C(N)N)C(=O)O (stereo partly drawn) (HELM PEPTIDE1{[Dab].P.[Dab].R}|PEPTIDE2{[N=C(N)NCCCCC(N)C(=O)[*:2]]}$PEPTIDE1,PEPTIDE2,1:R3-1:R2$$$V2.0)",inhibition,[1],41.4%
same,inhibition,[2],5.7%
N=C(N)NCCC[C@H](NC(=O)[C@@H]1CCCN1C(=O)C(CCN)NC(=O)[C@@H](N)CCCCN=C(N)N)C(=O)O (stereo partly drawn) (HELM PEPTIDE1{[N=C(N)NCCCC[C@H](N)C(=O)[*:2]].[NCCC(N[*:1])C(=O)[*:2]].P.R}$$$$V2.0),IC50,Neuropilin-1 [3],800 nM
"N=C(N)NCCCC(N)C(=O)NCCC[C@H](N)C(=O)N1CCC[C@H]1C(=O)N[C@@H](CCN)C(=O)N[C@@H](CCCNC(=N)N)C(=O)O (stereo partly drawn) (HELM PEPTIDE1{[Orn].P.[Dab].R}|PEPTIDE2{[N=C(N)NCCCC(N)C(=O)[*:2]]}$PEPTIDE1,PEPTIDE2,1:R3-1:R2$$$V2.0)",inhibition,[1],40.3%
same,inhibition,[2],2.8%
"N=C(N)NCCC[C@H](NC(=O)[C@H](CCN)NC(=O)[C@@H]1CCCN1C(=O)[C@@H](N)CCCNC(=O)C(N)CCCCN=C(N)N)C(=O)O (stereo partly drawn) (HELM PEPTIDE1{[Orn].P.[Dab].R}|PEPTIDE2{[N=C(N)NCCCCC(N)C(=O)[*:2]]}$PEPTIDE1,PEPTIDE2,1:R3-1:R2$$$V2.0)",inhibition,[1],36.3%
same,inhibition,[2],17%
